# Data reported in patent publication US7655659B2, “Biomimetic of Evodia rutaecarpa fruit extract for amelioration of inflammation” (Applied Genetics Incorporated Dermatics, priority 2004, dated 2010).
# Where two headings read alike, the source gives them in different places.
# Experiments:
# [1] = molecular target: T1, COX-2 (Homo sapiens, UniProt P35354); experiment: In vitro purified COX-2 enzyme assay (Cayman COX Inhibitor Screening Assay); format: biochemical; conditions: for IC50: in vitro
# T1 construct: purchased Cayman, Ann Arbor, Mich
# T1 sequence (P35354 18-604): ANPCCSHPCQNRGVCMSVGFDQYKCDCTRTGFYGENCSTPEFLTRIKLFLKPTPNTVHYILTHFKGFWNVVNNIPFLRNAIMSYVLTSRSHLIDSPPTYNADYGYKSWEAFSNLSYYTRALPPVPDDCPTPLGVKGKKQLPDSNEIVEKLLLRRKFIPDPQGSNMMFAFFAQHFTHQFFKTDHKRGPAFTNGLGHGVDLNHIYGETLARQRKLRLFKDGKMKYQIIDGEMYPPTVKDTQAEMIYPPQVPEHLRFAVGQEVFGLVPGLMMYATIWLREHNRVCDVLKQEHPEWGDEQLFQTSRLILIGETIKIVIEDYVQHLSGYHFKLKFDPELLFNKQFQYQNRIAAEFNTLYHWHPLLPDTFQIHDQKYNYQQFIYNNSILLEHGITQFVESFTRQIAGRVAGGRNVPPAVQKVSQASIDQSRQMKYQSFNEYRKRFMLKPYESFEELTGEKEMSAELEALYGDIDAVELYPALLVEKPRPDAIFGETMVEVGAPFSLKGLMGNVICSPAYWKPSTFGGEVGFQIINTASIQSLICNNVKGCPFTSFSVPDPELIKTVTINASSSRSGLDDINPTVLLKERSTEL
# Experimental: It is well known that the major source of inducible prostaglandin release from cells is related to induction of cyclo-oxygenase 2 (COX-2). […] The assay was a commercially available COX Inhibitor Screening Assay (Cayman, Ann Arbor, Mich.) run according to the manufacturer's instructions.
# Fractions were analyzed for COX-2 inhibitory activity using the in vitro assay employed in the previous example.
# [2] = molecular target: T2, COX-1 (Ovis aries, UniProt P05979); experiment: In vitro COX-1 enzyme assay
# T2 sequence (P05979 25-600): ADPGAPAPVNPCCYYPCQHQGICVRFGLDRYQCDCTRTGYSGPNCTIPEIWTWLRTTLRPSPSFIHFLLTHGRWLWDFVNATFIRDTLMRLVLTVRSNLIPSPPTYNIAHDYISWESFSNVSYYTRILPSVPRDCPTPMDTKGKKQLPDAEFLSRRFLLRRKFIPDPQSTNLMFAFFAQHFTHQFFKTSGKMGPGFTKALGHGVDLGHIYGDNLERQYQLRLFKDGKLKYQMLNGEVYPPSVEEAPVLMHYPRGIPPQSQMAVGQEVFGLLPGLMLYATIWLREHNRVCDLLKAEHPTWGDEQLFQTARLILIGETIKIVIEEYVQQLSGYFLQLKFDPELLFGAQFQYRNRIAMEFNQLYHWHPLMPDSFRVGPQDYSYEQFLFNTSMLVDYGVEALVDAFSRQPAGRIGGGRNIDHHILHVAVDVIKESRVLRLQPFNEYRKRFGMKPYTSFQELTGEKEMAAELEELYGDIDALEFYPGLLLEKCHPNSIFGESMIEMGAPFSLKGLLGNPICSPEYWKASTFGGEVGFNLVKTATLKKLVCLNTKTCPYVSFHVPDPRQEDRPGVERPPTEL
# [3] = system: HaCaT cells; experiment: Inhibition of UVB-induced PGE2 secretion from HaCaT keratinocytes (PGE2 ELISA); format: cell-based; conditions: for μg/ml to inhibit 80% of PGE2 secretion: UVB-irradiated HaCaT cells
# Experimental: The HaCaT keratinocyte cell line was cultured in GibcoBRL (Grand Island, N.Y.) D-MEM low glucose medium containing 10% heat inactivated fetal bovine serum, 1% penicillin/streptomycin, 1% L-glutamine, and 1% nonessential amino acids. […] The media was harvested 24 hours after UVB irradiation and analyzed for prostaglandin E2 (PGE2) content using a PGE2 ELISA kit (R & D Systems Catalogue Number DE0100).
# The observation that the selectivity of the Evodia rutaecarpa extract (216, see Example 1) was greater than the selectivity of purified BHT (87, Table 3) led us to conclude that there is synergy among the components in inhibiting COX-2. Initial data is consistent with this synergy existing also in the biomimetic of the present invention. The ability of BHT to inhibit PG secretion from UVB-irradiated HaCaT cells was examined by treating cells with BHT immediately after UVB irradiation. The media was harvested 24 hours later and analyzed for PGE2 content using a PGE2 ELISA kit (R & D Systems, Minneapolis, Minn., USA). BHT inhibited UVB-induced PG secretion at 2-20 μg/ml, which is in the range of the IC50 for inhibition of COX-2 in vitro.
# The preferred Evodia mixture of Table 4 was examined for its ability to inhibit UVB-induced PGE2 secretion from HaCaT cells. […] This illustrates the discovery that the Evodia rutaecarpa extract contains a compound which blocks this activity and that when the inhibitor is removed the components act synergistically to inhibit UVB-induced PGE2. The preferred Evodia mixture was also effective at inhibiting the COX-2 enzyme in vitro. […] Thus, while the Evodia mixture is useful for inhibiting UVB-induced PGE2 secretion from skin cells when used at 0.01% (v/v) (FIG. 4), for inflammatory conditions mediated exclusively by COX-2, the preferred formulation would contain at least 1% (v/v) Evodia mixture.
# [4] = system: human skin; experiment: Methyl nicotinate-induced erythema in human skin (Dermaspectrometer); format: in vivo; conditions: hydrogel lotion; Evodia mixture 1% (v/v) = 60.8 μg/ml actives, bisabolol 61 μg/ml
# Experimental: Each application area was demarked by an adjacent label made with a permanent black ink marker. One hour prior to the methyl nicotinate challenge dose, the Evodia mixture lotion was applied liberally to treatment spots. A Carbopol® hydrogel lotion containing no Evodia mixture was used as a vehicle control. […] Immediately thereafter, 10 μL of a 0.14 mg/ml methyl nicotinate solution in water was applied to each treatment spot. Erythema was read 15, 30, 60 and 90 minutes later. […] Results for all the subjects were calculated as change of erythema readings from time zero.
# The same protocol as described above was followed with five sites treated twice daily for two weeks. Three sites were treated with test articles of 0.1%, 0.3% and 1.0% (v/v) Evodia mixture in hydrogel lotion, one site was treated with a vehicle control lotion and one site was not treated with either lotion or methyl nicotinate.
# A side by side comparison was made between the Evodia mixture and bisabolol, each formulated in a hydrogel lotion, with bisabolol equal to the total amount of actives in the Evodia mixture.
# [5] = system: normal human epidermal keratinocytes (NHEK); experiment: Prostaglandin secretion from cultured skin cells treated with methyl nicotinate (PGD2 and PGE2 ELISA); format: cell-based; conditions: NHEK and also HMVEC, 125 to 1000 μM
# Experimental: (§1) Normal human epidermal keratinocytes (NHEK) and human microvascular endothelial cells (HMVEC) were obtained from a commercial supplier (Cascade Biologics, Portland, Oreg., USA) and cultured according to the manufacturer's recommendations. Methyl nicotinate was made up as a IM stock solution in H2O. The stock solution was diluted to 100 mM in H2O. The 100 mM methyl nicotinate was further diluted to 125 to 1000 μM methyl nicotinate in the cell culture media and the NHEK and HMVEC cells were treated when they had grown to approximately 70% confluency with fresh media containing the methyl nicotinate. After 24 hours of incubation in the methyl nicotinate media, the cultured media was collected. Nitric oxide was measured using the Greiss reagents as described in the Calbiochem colorimetric nitric oxide assay kit (Calbiochem, San Diego, Calif.). PGs in the cell culture media were analyzed using commercially available PGD2 and PGE2 ELISA kits (R & D Systems, Minneapolis, Minn., USA). […] This is in accordance with studies on human skin showing that erythema induced by topical application of methyl nicotinate is mediated by PGD2 (Morrow et al., 1992). […] Since NO is a vasodilatory agent that induces skin erythema, methyl nicotinate can thus induce skin erythema by induction of NO as well as via induction of PGD2 and PGE2. […]
# [6] = system: human microvascular endothelial cells (HMVEC); experiment: Nitric oxide release from endothelial cells treated with methyl nicotinate (Greiss reagents); format: cell-based; conditions: 24 hours; at much lower concentrations than for PGD2 and PGE2 (FIG. 5B)
# Experimental: as §1
# [7] = read-out: IC50 COX-2 (converted)
molecule,measurement,setting,value
"Cc1cc(C(C)(C)C)c(O)c(C(C)(C)C)c1 [Butylated Hydroxytoluene (BHT), butylated hydroxytoluene]",IC50,[1]; [7],68.1 µM
same,Selectivity COX-1/COX-2,[1]; ratio of IC50s,87
same,IC50,[2],5900 µM
same,concentration inhibiting UVB-induced PG secretion,"[3]; cells treated immediately after UVB, media harvested 24 hours later",2 to 20 µg/mL
"C[C@H]1[C@H](C)CC[C@]2(C(=O)O)CC[C@]3(C)C(=CC[C@@H]4[C@@]5(C)CC[C@H](O)C(C)(C)[C@@H]5CC[C@]43C)[C@H]12 [Ursolic Acid (URA), ursolic acid]",IC50,[1]; [7],59.1 µM
CC(C)=CCC[C@](C)(O)C1CC=C(C)CC1 (stereo partly drawn) [bisabolol],"effect on methyl nicotinate mediated erythema, side by side comparison",[4],ineffective
C[n+]1c2n(c(=O)c3ccccc31)CCc1c-2[nH]c2ccccc12 [dehydroevodiamine],IC50,[1]; read-out: μg/ml to inhibit 50% of COX-2 activity,> 24.8 µM
COC(=O)c1cccnc1 [methyl nicotinate],PGD2 secretion,[5]; 24 hours (FIG. 5A),induced
same,PGE2 secretion,[5]; 24 hours (data not shown),induced
same,NO secretion from HMVEC,[6],induced
O=c1c2ccccc2nc2n1CCc1c-2[nH]c2ccccc12 [rutaecarpine],μg/ml to inhibit 80% of PGE2 secretion,[3],0.3 µg/mL
evodiamine,μg/ml to inhibit 80% of PGE2 secretion,[3],0.3 µg/mL
